Assay results from patent US20240368150A1 (Hoffmann-La Roche Inc., priority 2021, published 2024).
Read-outs that look alike come from different tables or passages of the source.

How the values were obtained:
[1] = tested on: primary human T-cells
[2] = tested on: primary human T-cells; experiment: Proliferation assay after 5 days (CellTiter-Glo, CD3 stimulation; PBS counter screen); format: cell-based; conditions: CD3 stimulation; for Emax / EC50: Homo sapiens, T-cell, 120 h; for Emax: read-out: Emax proliferation (% activation); for EC50: primary human T-cells, CellTiter-Glo after 5 days, EC50 of fitted sigmoidal curve, read-out: Tcell Proliferation CD3 EC50
Summary of the method: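 Cpds added to medium-only plates; 5 d culture. Readout CellTiter-Glo 2.0 (equal vol), RT 45 min equilibration, 15 min rocking RT, luminescence. ATP signal taken as cell number.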

[3] = 5 days, normalized to reference compound A1 as stimulator control = 100%, DMSO neutral control

Row | Compound | EC50 [1] [nM] | Emax [2, 3] [%] | EC50 [2] [nM] | Emax proliferation (% activation) [2, 3] [% activation]
1 | CN1CCN(CC(C)(C)c2nnc(-c3cc4c(cc3F)S(=O)(=O)C[C@H](N)C(=O)N4Cc3ccc(Cl)cc3)o2)CC1 [Example 148, (3R)-3-amino-5-[(4-chlorophenyl)methyl]-7-[5-[1,1-dimethyl-2-(4-methylpiperazin-1-yl)ethyl]-1,3,4-oxadiazol-2-yl]-8-fluoro-1,1-dioxo-2,3-dihydro-1λ^6,5-benzothiazepin-4-one] | 988 | 48 | > 10000 | 
2 | CC(C)(CCCN)c1nnc(-c2cc3c(cc2F)S(=O)(=O)C[C@H](N)C(=O)N3Cc2ccc(Cl)cc2)o1 [Example 149, (3R)-3-amino-7-[5-(4-amino-1,1-dimethyl-butyl)-1,3,4-oxadiazol-2-yl]-5-[(4-chlorophenyl)methyl]-8-fluoro-1,1-dioxo-2,3-dihydro-1λ^6,5-benzothiazepin-4-one] | 4230 | 57 | 2560 | 
3 | CCN1CC(c2nnc(-c3cc4c(cc3F)S(=O)(=O)C[C@H](N)C(=O)N4Cc3ccc(Cl)cc3)o2)CC(F)(F)C1 (stereo partly drawn) [Example 150, (3R)-3-amino-5-[(4-chlorophenyl)methyl]-7-[5-(1-ethyl-5,5-difluoro-3-piperidyl)-1,3,4-oxadiazol-2-yl]-8-fluoro-1,1-dioxo-2,3-dihydro-1λ^6,5-benzothiazepin-4-one] | 358 | 128 | 75.7 | 
4 | COCCN1CC(c2nnc(-c3cc4c(cc3F)S(=O)(=O)C[C@H](N)C(=O)N4Cc3ccc(Cl)cc3)o2)CC(F)(F)C1 (stereo partly drawn) [Example 151, (3R)-3-amino-5-[(4-chlorophenyl)methyl]-7-[5-[5,5-difluoro-1-(2-methoxyethyl)-3-piperidyl]-1,3,4-oxadiazol-2-yl]-8-fluoro-1,1-dioxo-2,3-dihydro-1λ^6,5-benzothiazepin-4-one] | 93.4 | 112 | 45.9 | 
5 | N[C@H]1CS(=O)(=O)c2cc(F)c(-c3nnc(C4CN(CCO)CC(F)(F)C4)o3)cc2N(Cc2ccc(Cl)cc2)C1=O (stereo partly drawn) [Example 152, (3R)-3-amino-5-[(4-chlorophenyl)methyl]-7-[5-[5,5-difluoro-1-(2-hydroxyethyl)-3-piperidyl]-1,3,4-oxadiazol-2-yl]-8-fluoro-1,1-dioxo-2,3-dihydro-1λ^6,5-benzothiazepin-4-one] | 477 | 78 | 549 | 
6 | CN1CC(c2nnc(-c3cc4c(cc3F)S(=O)(=O)C[C@H](N)C(=O)N4Cc3ccc(Cl)cc3)o2)CC(F)(F)C1 (stereo partly drawn) [Example 153, (3R)-3-amino-5-[(4-chlorophenyl)methyl]-7-[5-(5,5-difluoro-1-methyl-3-piperidyl)-1,3,4-oxadiazol-2-yl]-8-fluoro-1,1-dioxo-2,3-dihydro-1λ^6,5-benzothiazepin-4-one] | 246 |  | 112 | 150
7 | CN1CCCC(c2nnc(-c3cc4c(cc3F)S(=O)(=O)C[C@H](N)C(=O)N4Cc3ccc(Cl)cc3)o2)C1 (stereo partly drawn) [Example 154, (3R)-3-amino-5-[(4-chlorophenyl)methyl]-8-fluoro-7-[5-(1-methyl-3-piperidyl)-1,3,4-oxadiazol-2-yl]-1,1-dioxo-2,3-dihydro-1λ^6,5-benzothiazepin-4-one] | 890 | 86 | 1720 | 
8 | CN1CC(C)(c2nnc(-c3cc4c(cc3F)S(=O)(=O)C[C@H](N)C(=O)N4Cc3ccc(Cl)cc3)o2)C1 [Example 155, (3R)-3-amino-5-[(4-chlorophenyl)methyl]-7-[5-(1,3-dimethylazetidin-3-yl)-1,3,4-oxadiazol-2-yl]-8-fluoro-1,1-dioxo-2,3-dihydro-1λ^6,5-benzothiazepin-4-one] | 778 | 72 | 4180 | 
9 | CC(C)(CNC1COC1)c1nnc(-c2cc3c(cc2F)S(=O)(=O)C[C@H](N)C(=O)N3Cc2ccc(Cl)cc2)o1 [Example 156, (3R)-3-amino-5-[(4-chlorophenyl)methyl]-7-[5-[1,1-dimethyl-2-(oxetan-3-ylamino)ethyl]-1,3,4-oxadiazol-2-yl]-8-fluoro-1,1-dioxo-2,3-dihydro-1lambda6,5-benzothiazepin-4-one] | 3340 | 135 | 8130 | 
10 | CC(C)(CNC1CCOC1)c1nnc(-c2cc3c(cc2F)S(=O)(=O)C[C@H](N)C(=O)N3Cc2ccc(Cl)cc2)o1 (stereo partly drawn) [Example 157, (3R)-3-amino-5-[(4-chlorophenyl)methyl]-7-[5-[1,1-dimethyl-2-(tetrahydrofuran-3-ylamino)ethyl]-1,3,4-oxadiazol-2-yl]-8-fluoro-1,1-dioxo-2,3-dihydro-1λ^6,5-benzothiazepin-4-one] | 2100 | 106 | 1010 | 
11 | CN1CCC(F)(F)C(c2nnc(-c3cc4c(cc3F)S(=O)(=O)C[C@H](N)C(=O)N4Cc3ccc(Cl)cc3)o2)C1 (stereo partly drawn) [Example 158, (3R)-3-amino-5-[(4-chlorophenyl)methyl]-7-[5-(4,4-difluoro-1-methyl-3-piperidyl)-1,3,4-oxadiazol-2-yl]-8-fluoro-1,1-dioxo-2,3-dihydro-1λ^6,5-benzothiazepin-4-one] | 194 | 141 | 2420 | 
12 | N[C@H]1CS(=O)(=O)c2cc(F)c(-c3nnc(C4CN(C5CC5)CC(F)(F)C4)o3)cc2N(Cc2ccc(Cl)cc2)C1=O (stereo partly drawn) [Example 159, (3R)-3-amino-5-[(4-chlorophenyl)methyl]-7-[5-(1-cyclopropyl-5,5-difluoro-3-piperidyl)-1,3,4-oxadiazol-2-yl]-8-fluoro-1,1-dioxo-2,3-dihydro-1λ^6,5-benzothiazepin-4-one] | 218 | 121 | 184 | 
13 | N[C@H]1CS(=O)(=O)c2cc(F)c(-c3nnc(C4CNCC(F)(F)C4)o3)cc2N(Cc2ccc(Cl)cc2)C1=O (stereo partly drawn) [Example 160, (3R)-3-amino-5-[(4-chlorophenyl)methyl]-7-[5-(5,5-difluoro-3-piperidyl)-1,3,4-oxadiazol-2-yl]-8-fluoro-1,1-dioxo-2,3-dihydro-1λ^6,5-benzothiazepin-4-one] | 500 | 96 | 382 | 
14 | CC1(c2nnc(-c3cc4c(cc3F)S(=O)(=O)C[C@H](N)C(=O)N4Cc3ccc(Cl)cc3)o2)CCNCC1 [Example 161, (3R)-3-amino-5-[(4-chlorophenyl)methyl]-8-fluoro-7-[5-(4-methyl-4-piperidyl)-1,3,4-oxadiazol-2-yl]-1,1-dioxo-2,3-dihydro-1λ^6,5-benzothiazepin-4-one] | 1150 | 73 | 5480 | 
15 | CC(=O)N1CC(c2nnc(-c3cc4c(cc3F)S(=O)(=O)C[C@H](N)C(=O)N4Cc3ccc(Cl)cc3)o2)CC(F)(F)C1 (stereo partly drawn) [Example 162, (3R)-7-[5-(1-acetyl-5,5-difluoro-3-piperidyl)-1,3,4-oxadiazol-2-yl]-3-amino-5-[(4-chlorophenyl)methyl]-8-fluoro-1,1-dioxo-2,3-dihydro-1λ^6,5-benzothiazepin-4-one] | 383 | 84 | 628 | 
16 | COC(=O)N1CC(c2nnc(-c3cc4c(cc3F)S(=O)(=O)C[C@H](N)C(=O)N4Cc3ccc(Cl)cc3)o2)CC(F)(F)C1 (stereo partly drawn) [Example 163, methyl 3,3-difluoro-5-[5-[(3R)-3-amino-5-[(4-chlorophenyl)methyl]-8-fluoro-1,1,4-trioxo-2,3-dihydro-1λ^6,5-benzothiazepin-7-yl]-1,3,4-oxadiazol-2-yl]piperidine-1-carboxylate] | 99.7 | 118 | 51.4 | 
17 | CS(=O)(=O)N1CC(c2nnc(-c3cc4c(cc3F)S(=O)(=O)C[C@H](N)C(=O)N4Cc3ccc(Cl)cc3)o2)CC(F)(F)C1 (stereo partly drawn) [Example 164, (3R)-3-amino-5-[(4-chlorophenyl)methyl]-7-[5-(5,5-difluoro-1-methylsulfonyl-3-piperidyl)-1,3,4-oxadiazol-2-yl]-8-fluoro-1,1-dioxo-2,3-dihydro-1λ^6,5-benzothiazepin-4-one] | 708 | 82 | 292 | 
18 | COC(=O)N1CCCC(c2nnc(-c3cc4c(cc3F)S(=O)(=O)C[C@H](N)C(=O)N4Cc3ccc(Cl)cc3)o2)C1 (stereo partly drawn) [Example 165, methyl 3-[5-[(3R)-3-amino-5-[(4-chlorophenyl)methyl]-8-fluoro-1,1,4-trioxo-2,3-dihydro-1λ^6,5-benzothiazepin-7-yl]-1,3,4-oxadiazol-2-yl]piperidine-1-carboxylate] | 458 | 85 | 309 | 
19 | COC(=O)N1CCC(c2nnc(-c3cc4c(cc3F)S(=O)(=O)C[C@H](N)C(=O)N4Cc3ccc(Cl)cc3)o2)C1 (stereo partly drawn) [Example 166, methyl 3-[5-[(3R)-3-amino-5-[(4-chlorophenyl)methyl]-8-fluoro-1,1,4-trioxo-2,3-dihydro-1λ^6,5-benzothiazepin-7-yl]-1,3,4-oxadiazol-2-yl]pyrrolidine-1-carboxylate] | 567 | 104 | 904 | 
20 | COC(=O)N1CCC(c2nnc(-c3cc4c(cc3F)S(=O)(=O)C[C@H](N)C(=O)N4Cc3ccc(Cl)cc3)o2)CC1 [Example 167, methyl 4-[5-[(3R)-3-amino-5-[(4-chlorophenyl)methyl]-8-fluoro-1,1,4-trioxo-2,3-dihydro-1λ^6,5-benzothiazepin-7-yl]-1,3,4-oxadiazol-2-yl]piperidine-1-carboxylate] | 122 | 100 | 208 | 
21 | CC(=O)N1CCC(c2nnc(-c3cc4c(cc3F)S(=O)(=O)C[C@H](N)C(=O)N4Cc3ccc(Cl)cc3)o2)CC1 [Example 168, (3R)-7-[5-(1-acetyl-4-piperidyl)-1,3,4-oxadiazol-2-yl]-3-amino-5-[(4-chlorophenyl)methyl]-8-fluoro-1,1-dioxo-2,3-dihydro-1λ^6,5-benzothiazepin-4-one] | 1590 | 63 | 4950 | 
